Reference: patent US7608603B2, “Substituted pyrazolo[3,4-D]pyrimidines as p38 MAP kinase inhibitors” (Roche Palo Alto LLC, priority 2005, dated 2009)
Structures can show the parent of a compound that is named as a salt.

Columns and labels:
[1] = Pharmacokinetic parameters in rats after oral administration of the succinate prodrug (Example 7); format: in vivo; conditions: male, Crl:WI(GLx/BRL/Han)IGS BR (Hanover-Wistar), rat plasma; for Cmax: succinate prodrug given orally (gavage, aqueous suspension); for AUC: succinate prodrug given orally
Procedure: Male Crl:WI(GLx/BRL/Han)IGS BR (Hanover-Wistar) rats weighing 240-260 g were cannulated. Groups of three rats were used for each dose level of an experimental compound. The test substance succinic acid mono-[3-(2-chloro-phenyl)-6-(2,4-difluoro-phenoxy)-4-(2-hydroxy-2-methyl-propylamino)-pyrazolo[3,4-d]pyrimidin-1-ylmethyl]ester was formulated as an aqueous suspension, and a dose of 3 or 10 mg/kg (in 1-[3-(2-Chloro-phenyl)-6-(2,4-difluoro-phenoxy)-1H-pyrazolo[3,4-d]pyrimidin-4-ylamino]-2-methyl-propan-2-ol equivalent) was administered orally through gavage. A blood sample (0.3 mL) was collected from the each treated rat at 0 (predose), 0.083, 0.25, 1, 2, 4, 6, and 8 h after dose via the jugular cannula. At 24 h after dosing, blood was collected from each treated rat via cardiac puncture. Lithium heparin was added to the samples which were stored on ice during sampling procedure. The samples were spun in a refrigerated centrifuge at 4° C. as soon as possible and the plasma samples were stored −20° C. immediately after centrifugation and until analysis. The concentration of test compound was determined by HPLC-MS/MS.

[2] = Pharmacokinetic parameters in rats after oral administration of the phosphate prodrug (Example 6); format: in vivo; conditions: for Cmax / AUC: male, Crl:WI(GLx/BRL/Han)IGS BR (Hanover-Wistar), po, rat plasma; for Cmax: phosphate prodrug given orally (gavage, aqueous suspension)
Source text: Male Crl:WI(GLx/BRL/Han)IGS BR (Hanover-Wistar) rats weighing 240-260 g were cannulated. Groups of three rats were used for each dose level of an experimental compound. One additional non-cannulated animal was included as vehicle control. Animals were allowed normal access to food and water throughout the experiment. The test substance phosphoric acid mono-{2-[3-(2-chloro-phenyl)-6-(2,4-difluoro-phenoxy)-1H-pyrazolo[3,4-d]pyrimidin-4-ylamino]-1-methyl-ethyl}ester was formulated as an aqueous suspension and a dose of 3 or 30 mg/kg (in 1-[3-(2-chloro-phenyl)-6-(2,4-difluoro-phenoxy)-1H-pyrazolo[3,4-d]pyrimidin-4-ylamino]-propan-2-ol equivalent) was administered orally through gavage. A blood sample (0.3 mL) was collected from the each treated rat at 0 (predose), 0.083, 0.25, 1, 2, 4, 6, and 8 hr after dose via the jugular cannula. At 24 hr after dosing, blood was collected from each treated rat via cardiac puncture. Blood was also collected from the untreated animal at 24 hr via cardiac puncture. Lithium heparin was added to the samples which were stored on ice during sampling procedure. The samples were spun in a refrigerated centrifuge at 4° C. as soon as possible and the plasma samples were stored −20° C. immediately after centrifugation and until analysis. The concentration of test compound was determined by HPLC-MS/MS. […] The prodrug phosphoric acid mono-{2-[3-(2-chloro-phenyl)-6-(2,4-difluoro-phenoxy)-1H-pyrazolo[3,4-d]pyrimidin-4-ylamino]-1-methyl-ethyl}ester was not detected in the rat plasma (at quantification limit of 0.0005 μg/mL) with the 3-mg/kg dose.

[3] = target: T1, p38 MAP kinase (Homo sapiens, UniProt Q16539); experiment: p38 (MAP) kinase in vitro assay, transfer of γ-33P from ATP to Myelin Basic Protein; format: biochemical; conditions: phosphorylated recombinant p38 MAP kinase, MBP substrate
T1 construct: made in house; host or cells: E. coli (co-expressed with SEK-1 and MEKK)
T1 sequence (Q16539 whole entry): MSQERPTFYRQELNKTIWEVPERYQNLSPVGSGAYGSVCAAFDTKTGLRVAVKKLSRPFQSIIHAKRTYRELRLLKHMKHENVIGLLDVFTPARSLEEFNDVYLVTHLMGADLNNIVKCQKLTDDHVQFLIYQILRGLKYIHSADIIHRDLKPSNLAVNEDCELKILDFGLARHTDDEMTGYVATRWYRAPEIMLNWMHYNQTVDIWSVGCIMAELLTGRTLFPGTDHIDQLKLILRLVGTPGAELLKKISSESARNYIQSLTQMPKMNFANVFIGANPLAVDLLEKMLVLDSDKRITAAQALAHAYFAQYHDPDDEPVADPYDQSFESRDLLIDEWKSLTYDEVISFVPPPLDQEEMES
Procedure: The p38 MAP kinase inhibitory activity of compounds of this invention in vitro was determined by measuring the transfer of the γ-phosphate from γ-^33P-ATP by p-38 kinase to Myelin Basic Protein (MBP), using a minor modification of the method described in Ahn, et al., J. Biol. Chem. 266:4220-4227 (1991).
The phosphorylated form of the recombinant p38 MAP kinase was co-expressed with SEK-1 and MEKK in E. Coli (see, Khokhlatchev, et al., J. Biol. Chem. 272:11057-11062 (1997)) and then purified by affinity chromatography using a Nickel column.
The phosphorylated p38 MAP kinase was diluted in kinase buffer (20 mM 3-(N-morpholino)propanesulfonic acid, pH 7.2, 25 mM β-glycerol phosphate, 5 mM ethylene glycol-bis(beta-aminoethyl ether)-N,N,N′,N′-tetraacetic acid, 1 mM sodium ortho-vanadate, 1 mM dithiothreitol, 40 mM magnesium chloride). Test compound dissolved in DMSO or only DMSO (control) was added and the samples were incubated for 10 min at 30° C. The kinase reaction was initiated by the addition of a substrate cocktail containing MBP and γ-^33P-ATP. After incubating for an additional 20 min at 30° C., the reaction was terminated by adding 0.75% phosphoric acid. The phosphorylated MBP was then separated from the residual γ-^33P-ATP using a phosphocellulose membrane (Millipore, Bedfrod, Mass.) and quantitated using a scintillation counter (Packard, Meriden, Conn.).

[4] = phosphate prodrug given orally, 30 mg/kg in parent equivalent

Row | Compound | Cmax ([1]; 3 mg/kg in parent equivalent) [ng/mL] | Cmax ([1]; 10 mg/kg in parent equivalent) [ng/mL] | AUC ([1]; 3 mg/kg in parent equivalent) [ng·h/mL] | AUC ([1]; 10 mg/kg in parent equivalent) [ng·h/mL] | Cmax ([2]; 30 mg/kg in parent equivalent) [ng/mL] | AUC [2, 4] [ng·h/mL] | other results
1 | C[C@@H](CNc1nc(Oc2ccc(F)cc2F)nc2[nH]nc(-c3ccccc3Cl)c12)OP(=O)(O)O (as salt: sodium) [phosphoric acid mono-{2-[3-(2-chloro-phenyl)-6-(2,4-difluoro-phenoxy)-1H-pyrazolo[3,4-d]pyrimidin-4-ylamino]-1-methyl-ethyl}ester] | – | – | – | – | – | – | melting point: > 300 °C
2 | OCC(O)CNc1nc(Oc2ccc(F)cc2F)nc2[nH]nc(-c3ccccc3Cl)c12 (centres unmarked) [3-[3-(2-Chloro-phenyl)-6-(2,4-difluoro-phenoxy)-1H-pyrazolo[3,4-d]pyrimidin-4-ylamino]-propane-1,2-diol] | – | – | – | – | – | – | IC50 [3]: 4 nM
3 | C[C@@H](CNc1nc(Oc2ccc(F)cc2F)nc2[nH]nc(-c3ccccc3Cl)c12)OP(=O)(O)O [phosphoric acid mono-{2-[3-(2-chloro-phenyl)-6-(2,4-difluoro-phenoxy)-1H-pyrazolo[3,4-d]pyrimidin-4-ylamino]-1-methyl-ethyl}ester] | – | – | – | – | 214 | 188 | concentration in rat plasma (not detected at quantification limit) ([2]; phosphate prodrug given orally, 3 mg/kg dose): < 0.5 ng/mL

Now from value to molecule, other results behind:

Row | Cmax ([1]; 3 mg/kg in parent equivalent) [ng/mL] | Cmax ([1]; 10 mg/kg in parent equivalent) [ng/mL] | AUC ([1]; 3 mg/kg in parent equivalent) [ng·h/mL] | AUC ([1]; 10 mg/kg in parent equivalent) [ng·h/mL] | Cmax ([2]; 30 mg/kg in parent equivalent) [ng/mL] | AUC [2, 4] [ng·h/mL] | Compound | other results
4 | 1340 | 7050 | 9270 | 47400 | – | – | CC(C)(O)CNc1nc(Oc2ccc(F)cc2F)nc2[nH]nc(-c3ccccc3Cl)c12 [1-[3-(2-Chloro-phenyl)-6-(2,4-difluoro-phenoxy)-1H-pyrazolo[3,4-d]pyrimidin-4-ylamino]-2-methyl-propan-2-ol] | –
5 | – | – | – | – | 9800 | 124000 | C[C@H](O)CNc1nc(Oc2ccc(F)cc2F)nc2[nH]nc(-c3ccccc3Cl)c12 [1-[3-(2-chloro-phenyl)-6-(2,4-difluoro-phenoxy)-1H-pyrazolo[3,4-d]pyrimidin-4-ylamino]-propan-2-ol] | Cmax ([2]; 3 mg/kg in parent equivalent): 1330 ng/mL; AUC ([2]; phosphate prodrug given orally, 3 mg/kg in parent equivalent): 12600 ng·h/mL
6 | 1830 | 9250 | 6110 | 20900 | – | – | CC(C)(O)CNc1nc(Oc2ccc(F)cc2F)nc2c1c(-c1ccccc1Cl)nn2COC(=O)CCC(=O)O [Succinic acid mono-[3-(2-chloro-phenyl)-6-(2,4-difluoro-phenoxy)-4-(2-hydroxy-2-methyl-propylamino)-pyrazolo[3,4-d]pyrimidin-1-ylmethyl]ester] | –
